According to patent publication US20240391936A1, “TETRAHYDROTHIENO PYRIDINE DERIVATIVES AS DDRS INHIBITORS” (CHIESI FARMACEUTICI S.P.A., priority 2021, published 2024):

How the values were obtained:
DDR1 [1] = molecular target: T1, DDR1 (Homo sapiens, UniProt Q08345); experiment: DDR1 binding assay (LanthaScreen Europium Kinase Binding assay); design: purchased Carna Biosciences; settings: binding assay, 5 nM DDR1, 20 nM Kinase Tracer 178; Ki from IC50 by Cheng-Prusoff; read-out: Ki DDR1
Outline: (§1)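 TR-FRET tracer-displacement format: 665/615 nm emission ratio (340 nm excitation) gave IC50 by 4-parameter fit, then Ki via Cheng-Prusoff. Each kinase at 5 nM with 2 nM Eu-anti-GST antibody and Tracer 178 (DDR1 20 nM, DDR2 10 nM), 1 h, room temperature, HEPES pH 7.5 buffer.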

DDR1 [2] = molecular target: T1, DDR1; experiment: DDR1 cell based assay (PathHunter U2OS DDR1 assay); design: host or cells: U2OS-DDR1 (PathHunter); settings: U2OS-DDR1 cells, bovine Type II Collagen 20 μg/ml
Outline: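 Receptor activation measured by enzyme-fragment complementation luminescence in engineered U2OS cells. Compound added 30 min before overnight challenge with 20 μg/ml bovine collagen II; data scaled between vehicle and collagen-stimulated controls, IC50 derived by four-parameter variable-slope fitting.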

DDR2 = molecular target: T2, DDR2 (Homo sapiens, UniProt Q16832); experiment: DDR2 binding assay (LanthaScreen Europium Kinase Binding assay); design: purchased Life Technologies; settings: binding assay, 5 nM DDR2, 10 nM Kinase Tracer 178; Ki from IC50 by Cheng-Prusoff; read-out: Ki DDR2
T2 sequence (Q16832 22-855): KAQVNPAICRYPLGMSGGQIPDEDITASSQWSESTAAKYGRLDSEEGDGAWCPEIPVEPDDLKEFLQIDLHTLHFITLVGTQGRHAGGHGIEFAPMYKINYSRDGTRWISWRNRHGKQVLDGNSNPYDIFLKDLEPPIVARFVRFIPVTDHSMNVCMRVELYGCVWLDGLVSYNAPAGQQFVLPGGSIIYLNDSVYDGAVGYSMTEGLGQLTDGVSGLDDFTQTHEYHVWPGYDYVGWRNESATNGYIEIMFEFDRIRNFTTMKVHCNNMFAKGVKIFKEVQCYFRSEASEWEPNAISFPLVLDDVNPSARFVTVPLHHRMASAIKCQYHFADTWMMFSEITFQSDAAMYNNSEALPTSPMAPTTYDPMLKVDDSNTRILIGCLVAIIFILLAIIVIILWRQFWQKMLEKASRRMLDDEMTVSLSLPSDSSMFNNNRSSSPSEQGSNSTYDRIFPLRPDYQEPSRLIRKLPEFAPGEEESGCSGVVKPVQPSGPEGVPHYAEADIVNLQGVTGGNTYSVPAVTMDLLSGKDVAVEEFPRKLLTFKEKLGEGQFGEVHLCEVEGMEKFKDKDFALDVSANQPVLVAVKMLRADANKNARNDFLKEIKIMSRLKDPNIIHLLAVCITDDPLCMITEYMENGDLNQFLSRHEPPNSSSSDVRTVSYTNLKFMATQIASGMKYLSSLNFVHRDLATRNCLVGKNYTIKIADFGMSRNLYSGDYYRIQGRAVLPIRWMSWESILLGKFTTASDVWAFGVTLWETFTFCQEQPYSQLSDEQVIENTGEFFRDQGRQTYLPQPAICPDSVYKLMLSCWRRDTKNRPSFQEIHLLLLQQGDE
Outline: as §1

T1 sequence (Q08345 19-913): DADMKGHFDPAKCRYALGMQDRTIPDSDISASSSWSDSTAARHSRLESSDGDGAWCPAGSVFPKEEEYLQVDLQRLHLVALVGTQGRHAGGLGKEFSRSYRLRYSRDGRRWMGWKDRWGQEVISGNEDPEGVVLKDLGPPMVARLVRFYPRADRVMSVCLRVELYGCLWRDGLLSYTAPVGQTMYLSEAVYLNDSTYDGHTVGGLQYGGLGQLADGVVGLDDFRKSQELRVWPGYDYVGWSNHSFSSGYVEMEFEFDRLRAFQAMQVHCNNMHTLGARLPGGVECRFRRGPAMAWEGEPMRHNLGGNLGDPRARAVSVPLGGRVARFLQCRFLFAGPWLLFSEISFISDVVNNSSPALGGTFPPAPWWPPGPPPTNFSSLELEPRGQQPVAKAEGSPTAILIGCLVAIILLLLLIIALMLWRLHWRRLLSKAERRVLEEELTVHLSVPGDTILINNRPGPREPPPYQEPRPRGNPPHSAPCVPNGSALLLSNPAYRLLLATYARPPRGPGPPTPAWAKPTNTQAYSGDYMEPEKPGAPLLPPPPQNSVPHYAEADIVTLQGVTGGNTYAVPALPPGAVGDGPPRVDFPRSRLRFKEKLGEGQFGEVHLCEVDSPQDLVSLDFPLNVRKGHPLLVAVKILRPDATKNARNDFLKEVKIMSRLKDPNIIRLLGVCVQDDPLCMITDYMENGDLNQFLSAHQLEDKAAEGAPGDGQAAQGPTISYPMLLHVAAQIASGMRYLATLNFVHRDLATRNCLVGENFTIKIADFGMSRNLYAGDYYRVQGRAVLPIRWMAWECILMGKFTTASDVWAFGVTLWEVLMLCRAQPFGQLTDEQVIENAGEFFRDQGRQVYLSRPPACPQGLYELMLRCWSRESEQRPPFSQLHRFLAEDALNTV

Row | SMILES | Ki (DDR1 [1]) | IC50 (DDR1 [2]) | Ki (DDR2)
1 | CC1c2scc(C(=O)Nc3cc(C(C)(C)C)nn3C)c2CCN1C(=O)c1cnc2ccccn12 (stereo not drawn) [Example 99, N-(3-(tert-butyl)-1-methyl-1H-pyrazol-5-yl)-6-(imidazo[1,2-a]pyridine-3-carbonyl)-7-methyl-4,5,6,7-tetrahydrothieno[2,3-c]pyridine-3-carboxamide] | < 25 nM | 25 to 50 nM | 50 to 80 nM
2 | CN(Cc1cc(NC(=O)c2csc3c2CCN(C(=O)c2cnc4ccccn24)C3)cc(C(F)(F)F)c1)C1COC1 [Example 53, 6-(imidazo[1,2-a]pyridine-3-carbonyl)-N-(3-((methyl(oxetan-3-yl)amino)methyl)-5-(trifluoromethyl)phenyl)-4,5,6,7-tetrahydrothieno[2,3-c]pyridine-3-carboxamide] | < 25 nM | 50 to 80 nM | < 25 nM
3 | CC(C)(C)c1coc(NC(=O)c2csc3c2CCN(C(=O)c2cnc4ccccn24)C3)n1 [Example 47, N-(4-(tert-butyl)oxazol-2-yl)-6-(imidazo[1,2-a]pyridine-3-carbonyl)-4,5,6,7-tetrahydrothieno[2,3-c]pyridine-3-carboxamide] | < 25 nM | 25 to 50 nM | < 25 nM
4 | CN(C)Cc1cc(NC(=O)c2csc3c2CCN(C(=O)c2cnc4ccccn24)C3)cc(C(F)(F)F)c1 [Example 19, N-(3-((dimethylamino)methyl)-5-(trifluoromethyl)phenyl)-6-(imidazo[1,2-a]pyridine-3-carbonyl)-4,5,6,7-tetrahydrothieno[2,3-c]pyridine-3-carboxamide] | < 25 nM | < 25 nM | < 25 nM
5 | CN1CC=C(c2ccc3ncc(C(=O)N4CCc5c(C(=O)Nc6cccc(C(F)(F)F)c6)csc5C4)n3c2)CC1 [Example 167, 6-(6-(1-methyl-1,2,3,6-tetrahydropyridin-4-yl)imidazo[1,2-a]pyridine-3-carbonyl)-N-(3-(trifluoromethyl)phenyl)-4,5,6,7-tetrahydrothieno[2,3-c]pyridine-3-carboxamide] | < 25 nM | 25 to 50 nM | < 25 nM
6 | O=C(Nc1cc(N2CCOCC2)cc(C(F)(F)F)c1)c1csc2c1CCN(C(=O)c1cnn3ccncc13)C2 [Example 182, N-(3-morpholino-5-(trifluoromethyl)phenyl)-6-(pyrazolo[1,5-a]pyrazine-3-carbonyl)-4,5,6,7-tetrahydrothieno[2,3-c]pyridine-3-carboxamide] | < 25 nM | < 25 nM | < 25 nM
7 | O=C(Nc1cc(CN2CCC(F)C2)cc(C(F)(F)F)c1)c1csc2c1CCN(C(=O)c1cnc3ccccn13)C2 (stereo not drawn) [Example 51, N-(3-((3-fluoropyrrolidin-1-yl)methyl)-5-(trifluoromethyl)phenyl)-6-(imidazo[1,2-a]pyridine-3-carbonyl)-4,5,6,7-tetrahydrothieno[2,3-c]pyridine-3-carboxamide] | < 25 nM | 25 to 50 nM | < 25 nM
8 | CC(C)(C)c1cc(NC(=O)c2csc3c2CCN(C(=O)c2cnc4ccccn24)C3)on1 [Example 34, N-(3-(tert-butyl)isoxazol-5-yl)-6-(imidazo[1,2-a]pyridine-3-carbonyl)-4,5,6,7-tetrahydrothieno[2,3-c]pyridine-3-carboxamide] | < 25 nM | < 25 nM | < 25 nM
9 | Cc1ccc(-n2nc(C(C)(C)C)cc2NC(=O)c2csc3c2CCN(Cc2ccnc4[nH]ccc24)C3)cc1 [Example 76, 6-((1H-pyrrolo[2,3-b]pyridin-4-yl)methyl)-N-(3-(tert-butyl)-1-(p-tolyl)-1H-pyrazol-5-yl)-4,5,6,7-tetrahydrothieno[2,3-c]pyridine-3-carboxamide] | < 25 nM | 50 to 80 nM | 25 to 50 nM
10 | O=C(Nc1cncc(C(F)(F)F)c1)c1csc2c1CCN(C(=O)c1cnc3ccccn13)C2 [Example 28, 6-(imidazo[1,2-a]pyridine-3-carbonyl)-N-(5-(trifluoromethyl)pyridin-3-yl)-4,5,6,7-tetrahydrothieno[2,3-c]pyridine-3-carboxamide] | < 25 nM | < 25 nM | < 25 nM
11 | CN(C)[C@H]1CCN(Cc2cc(NC(=O)c3csc4c3CCN(C(=O)c3cnc5ccccn35)C4)cc(C(F)(F)F)c2)C1 [Example 44, (S)-N-(3-((3-(dimethylamino)pyrrolidin-1-yl)methyl)-5-(trifluoromethyl)phenyl)-6-(imidazo[1,2-a]pyridine-3-carbonyl)-4,5,6,7-tetrahydrothieno[2,3-c]pyridine-3-carboxamide] | < 25 nM | 25 to 50 nM | < 25 nM
12 | CN(C)Cc1ccc(NC(=O)c2csc3c2CCN(C(=O)c2cnn4ccncc24)C3)cc1C(F)(F)F [Example 171, N-(4-((dimethylamino)methyl)-3-(trifluoromethyl)phenyl)-6-(pyrazolo[1,5-a]pyrazine-3-carbonyl)-4,5,6,7-tetrahydro thieno[2,3-c]pyridine-3-carboxamide] | < 25 nM | 50 to 80 nM | < 25 nM
13 | COCCOc1ccc(NC(=O)c2csc3c2CCN(C(=O)c2cnc4ccccn24)C3)cc1C(F)(F)F [Example 15, 6-(imidazo[1,2-a]pyridine-3-carbonyl)-N-(4-(2-methoxyethoxy)-3-(trifluoromethyl)phenyl)-4,5,6,7-tetrahydrothieno[2,3-c]pyridine-3-carboxamide] | < 25 nM | 25 to 50 nM | < 25 nM
14 | CCC(C)(C)c1cc(NC(=O)c2csc3c2CCN(C(=O)c2cnc4ccccn24)C3)on1 [Example 119, 6-(imidazo[1,2-a]pyridine-3-carbonyl)-N-(3-(tert-pentyl)isoxazol-5-yl)-4,5,6,7-tetrahydrothieno[2,3-c]pyridine-3-carboxamide] | < 25 nM | 25 to 50 nM | < 25 nM
15 | CN1CCN(Cc2ccc(NC(=O)c3csc4c3CCN(C(=O)c3cnc5ccccn35)C4)cc2C(F)(F)F)CC1 [Example 18, 6-(imidazo[1,2-a]pyridine-3-carbonyl)-N-(4-((4-methylpiperazin-1-yl)methyl)-3-(trifluoromethyl)phenyl)-4,5,6,7-tetrahydrothieno[2,3-c]pyridine-3-carboxamide] | < 25 nM | 50 to 80 nM | < 25 nM
16 | O=C(Nc1cncc(OC(F)F)c1)c1csc2c1CCN(C(=O)c1cnc3ccccn13)C2 [Example 118, N-(5-(difluoromethoxy)pyridin-3-yl)-6-(imidazo[1,2-a]pyridine-3-carbonyl)-4,5,6,7-tetrahydrothieno[2,3-c]pyridine-3-carboxamide] | < 25 nM | 25 to 50 nM | < 25 nM
17 | CC(C)(C)c1cc(NC(=O)c2csc3c2CCN(C(=O)c2cnn4ccncc24)C3)no1 [Example 175, N-(5-(tert-butyl)isoxazol-3-yl)-6-(pyrazolo[1,5-a]pyrazine-3-carbonyl)-4,5,6,7-tetrahydrothieno[2,3-c]pyridine-3-carboxamide] | < 25 nM | 50 to 80 nM | < 25 nM
18 | O=C(Nc1cc(C(F)(F)F)cnn1)c1csc2c1CCN(C(=O)c1cnc3ccccn13)C2 [Example 173, 6-(imidazo[1,2-a]pyridine-3-carbonyl)-N-(5-(trifluoromethyl)pyridazin-3-yl)-4,5,6,7-tetrahydrothieno[2,3-c]pyridine-3-carboxamide] | < 25 nM | 25 to 50 nM | < 25 nM
